The supplement of paper PMC6045584
± gives the standard deviation of the averaged measurements.

How the values were obtained:
[1] = compound: CC(=O)NCC(=O)N1[C@@H]2CC[C@H]1c1ccc(Nc3ncc(C(F)(F)F)c(NC4CCC4)n3)cc12; assay: surviving fraction relative to DMSO-only wells; higher = less growth inhibition; details: exposure time: 5 days
Method in brief: (§1)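 At 250–500 cells per well in 384-well plates, log-phase tumour cell lines were seeded and, 24 hours on, exposed continuously for five days to inhibitors at 0.5, 1, 5, 10, 50, 100, 500 and 1000 nM. Viability readout was CellTiter-Glo luminescence, reported as surviving fraction normalised to the median of DMSO-only wells.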

CARBOPLATIN = compound: O=C(O)C1(C(=O)O)CCC1.[NH2-].[NH2-].[Pt+2] [CARBOPLATIN]; assay: as above; details: exposure time: 5 days
Method in brief: as §1

Test System | surviving fraction ([1]; 0.5 nM) | surviving fraction ([1]; 1 nM) | surviving fraction ([1]; 5 nM) | surviving fraction ([1]; 10 nM) | surviving fraction ([1]; 50 nM) | surviving fraction ([1]; 100 nM) | surviving fraction ([1]; 500 nM) | surviving fraction ([1]; 1000 nM) | surviving fraction (CARBOPLATIN; 0.5 nM) | surviving fraction (CARBOPLATIN; 1 nM) | surviving fraction (CARBOPLATIN; 5 nM) | surviving fraction (CARBOPLATIN; 10 nM) | surviving fraction (CARBOPLATIN; 50 nM) | surviving fraction (CARBOPLATIN; 100 nM) | surviving fraction (CARBOPLATIN; 500 nM) | surviving fraction (CARBOPLATIN; 1000 nM)
HCC38 BREAST | 1.19 ± 0.12 | 1.19 ± 0.3 | 0.952 ± 0.096 | 1.26 ± 0.31 | 0.747 ± 0.077 | 0.668 ± 0.051 | 0.594 ± 0.15 | 0.455 ± 0.062 | 1.07 ± 0.18 | 0.841 ± 0.19 | 1.34 ± 0.44 | 1.15 ± 0.15 | 0.944 ± 0.04 | 0.919 ± 0.13 | 0.962 ± 0.086 | 1 ± 0.12
SAOS2 BONE | 1.03 ± 0.017 | 1.045 ± 0.0052 | 1.08 ± 0.069 | 1.06 ± 0.092 | 1.03 ± 0.065 | 0.704 ± 0.049 | 0.157 ± 0.0075 | 0.0957 ± 0.0029 | 1.1 ± 0.048 | 1.18 ± 0.014 | 1.18 ± 0.059 | 1.16 ± 0.073 | 1.15 ± 0.051 | 1.06 ± 0.11 | 1.09 ± 0.097 | 0.943 ± 0.22
HS578T BREAST | 1 ± 0.016 | 0.962 ± 0.088 | 0.918 ± 0.23 | 0.879 ± 0.027 | 0.866 ± 0.085 | 0.721 ± 0.081 | 0.592 ± 0.071 | 0.559 ± 0.11 | 1.06 ± 0.25 | 1.04 ± 0.091 | 1.07 ± 0.14 | 1.12 ± 0.16 | 0.964 ± 0.055 | 1.03 ± 0.13 | 0.992 ± 0.17 | 1 ± 0.076
MDAMB231 BREAST | 0.975 ± 0.018 | 0.98 ± 0.016 | 0.974 ± 0.011 | 0.967 ± 0.015 | 0.706 ± 0.063 | 0.571 ± 0.027 | 0.416 ± 0.022 | 0.337 ± 0.018 | 0.997 ± 0.048 | 0.988 ± 0.019 | 0.994 ± 0.036 | 1 ± 0.027 | 1.01 ± 0.019 | 1.02 ± 0.038 | 1.03 ± 0.026 | 1.02 ± 0.041
SJSA1 BONE | 1.06 ± 0.086 | 1.08 ± 0.061 | 1.08 ± 0.047 | 1.03 ± 0.016 | 1.07 ± 0.026 | 0.95 ± 0.019 | 0.6 ± 0.013 | 0.531 ± 0.014 | 1.68 ± 0.11 | 1.73 ± 0.089 | 1.56 ± 0.12 | 1.64 ± 0.17 | 0.869 ± 0.07 | 1.376 ± 0.0032 | 1.54 ± 0.088 | 1.16 ± 0.17
T47D BREAST | 0.9824 ± 0.0044 | 1.02 ± 0.014 | 1.03 ± 0.032 | 1.05 ± 0.046 | 1.16 ± 0.025 | 1.09 ± 0.013 | 1.12 ± 0.018 | 1.07 ± 0.013 | 1.02 ± 0.049 | 1.04 ± 0.04 | 1.04 ± 0.083 | 1.01 ± 0.019 | 1.05 ± 0.013 | 1.05 ± 0.059 | 1.05 ± 0.028 | 1.03 ± 0.042
HCC1806 BREAST | 0.995 ± 0.055 | 0.914 ± 0.11 | 1.14 ± 0.041 | 1.11 ± 0.031 | 0.658 ± 0.057 | 0.471 ± 0.042 | 0.583 ± 0.076 | 0.407 ± 0.04 | 1.05 ± 0.14 | 0.777 ± 0.044 | 1.1 ± 0.15 | 1.2 ± 0.012 | 1.17 ± 0.081 | 1.14 ± 0.14 | 1.04 ± 0.086 | 1.16 ± 0.14
NOS1 BONE | 1.25 ± 0.038 | 1.29 ± 0.1 | 1.53 ± 0.21 | 1.21 ± 0.095 | 0.84 ± 0.062 | 0.724 ± 0.055 | 0.302 ± 0.017 | 0.219 ± 0.028 | 1.22 ± 0.2 | 1.08 ± 0.076 | 1.31 ± 0.13 | 1.25 ± 0.1 | 1.22 ± 0.14 | 1.23 ± 0.1 | 1.11 ± 0.051 | 0.955 ± 0.073
SCC36 HEADNECK | 1.01 ± 0.1 | 1.04 ± 0.15 | 1.13 ± 0.16 | 1.12 ± 0.066 | 0.945 ± 0.12 | 0.731 ± 0.052 | 0.428 ± 0.048 | 0.431 ± 0.051 | 1.07 ± 0.03 | 0.992 ± 0.15 | 1.09 ± 0.096 | 1.07 ± 0.097 | 1.06 ± 0.17 | 1.04 ± 0.078 | 1.05 ± 0.031 | 0.85 ± 0.12
SUM44 BREAST | 1.04 ± 0.039 | 0.997 ± 0.013 | 1.09 ± 0.028 | 1.06 ± 0.13 | 1.09 ± 0.025 | 1.27 ± 0.045 | 1.4 ± 0.056 | 1.26 ± 0.051 | 1.15 ± 0.28 | 1.05 ± 0.14 | 1.16 ± 0.23 | 1.01 ± 0.2 | 1.28 ± 0.27 | 1.11 ± 0.1 | 1.2 ± 0.25 | 1.07 ± 0.079
OSHN BONE | 1.01 ± 0.028 | 1 ± 0.029 | 1 ± 0.025 | 0.993 ± 0.05 | 0.991 ± 0.02 | 0.206 ± 0.0076 | 0.407 ± 0.036 | 0.218 ± 0.011 | 1.091 ± 0.0051 | 1.06 ± 0.022 | 1.09 ± 0.035 | 1.05 ± 0.044 | 1.141 ± 0.0049 | 1.13 ± 0.015 | 1.15 ± 0.014 | 1.113 ± 0.011
S68 BREAST | 0.875 ± 0.16 | 0.86 ± 0.083 | 0.973 ± 0.18 | 0.946 ± 0.11 | 0.487 ± 0.057 | 0.472 ± 0.024 | 0.529 ± 0.081 | 0.466 ± 0.13 | 1.08 ± 0.28 | 1.01 ± 0.082 | 0.9 ± 0.16 | 1.4 ± 0.15 | 1.22 ± 0.6 | 1.14 ± 0.38 | 1.11 ± 0.21 | 1.29 ± 0.11
HELA CERVIX | 0.991 ± 0.05 | 1.02 ± 0.092 | 0.977 ± 0.051 | 0.956 ± 0.048 | 0.697 ± 0.053 | 0.4 ± 0.052 | 0.168 ± 0.03 | 0.142 ± 0.015 | 1.07 ± 0.02 | 1.03 ± 0.042 | 1.03 ± 0.034 | 1.01 ± 0.02 | 1.05 ± 0.053 | 1.14 ± 0.088 | 1.15 ± 0.055 | 1.09 ± 0.045
